Results from article PMC3136501 (PLoS ONE, 2011).

Legend:
[1] = target: T1, human OCT1 (Homo sapiens, UniProt O15245); assay: Inhibition of OCT1-mediated metformin uptake in stably transfected HEK cells; format: cell-based; conditions: for IC50: 5 µM [14C]metformin uptake, 5 min, HEK-OCT1, means ± SE of 3 experiments
T1 sequence (O15245 1-554): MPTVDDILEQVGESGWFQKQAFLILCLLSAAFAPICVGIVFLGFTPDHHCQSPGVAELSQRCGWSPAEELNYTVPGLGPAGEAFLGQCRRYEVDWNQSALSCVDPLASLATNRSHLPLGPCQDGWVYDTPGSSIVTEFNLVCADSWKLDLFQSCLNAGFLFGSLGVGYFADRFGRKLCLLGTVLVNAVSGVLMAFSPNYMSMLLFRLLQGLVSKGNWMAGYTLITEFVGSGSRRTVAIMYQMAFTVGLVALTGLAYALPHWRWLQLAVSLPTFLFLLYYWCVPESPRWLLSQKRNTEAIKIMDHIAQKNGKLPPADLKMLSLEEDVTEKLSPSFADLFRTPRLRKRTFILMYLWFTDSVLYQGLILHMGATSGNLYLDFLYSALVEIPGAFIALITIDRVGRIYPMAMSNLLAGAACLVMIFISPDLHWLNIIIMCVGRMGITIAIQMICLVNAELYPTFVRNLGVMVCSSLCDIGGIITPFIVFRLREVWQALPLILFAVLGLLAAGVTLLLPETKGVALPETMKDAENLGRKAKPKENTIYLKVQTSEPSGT
Protocol: (§1) SLC22A1 cDNA and SLC22A2 cDNA had been PCR-amplified from human liver and kidney, respectively, as reported elsewhere and cDNAs were provided by the German Cancer Research Center; the study and the use of the tissue were approved by the institutional review board of the German Cancer Center, Heidelberg, Germany. Since the data were analyzed anonymously, and tissues were left-over samples from diagnostic procedures, written informed consent had not been required and obtained. IRB specifically waived the need for consent due to the fact the human tissue material used was fully anonymized. SLC22A3 cDNA was amplified using SLC22A3-TrueClone (Origene, Rockville, MD, USA) as the template. SLC22A1 cDNA was cloned into the expression vector pcDNA3.1/Hygro(-) (Invitrogen, Darmstadt, Germany), SLC22A2 and SLC22A3 cDNA into pcDNA3.1(+) (Invitrogen). […] HEK cells were grown in DMEM (Sigma) supplemented with 10% fetal bovine serum (Sigma), 100 U⋅ml^−1 penicillin, and 100 µg⋅ml^−1 streptomycin (Lonza, Basel, Switzerland) at 37°C and 5% CO2. HEK cells were transfected with Metafectene Pro (Biontex, München, Germany). Selection of clones stably expressing OCT1 was carried out with 0.5 mg⋅ml^−1 hygromycin as described. Similarly, clones stably expressing OCT2 or OCT3 were selected with 800 µg⋅ml^−1 G418. HEK cells stably transfected with the empty pcDNA3.1(+) vector served as controls (HEK-Co). Cells were incubated with 5 mM butyrate 24 h before use to increase protein levels of recombinant transporters.
(§2) HEK cells (400000 cells/well) were seeded into 24-well cell culture plates (Greiner Bio-One, Frickenhausen, Germany) and grown for 48 h. Cell adherence was improved by coating plates with poly-L-lysine (Biochrom AG, Berlin, Germany) prior to cell plating. All uptake studies were carried out at 37°C as described. […] Uptake was stopped at indicated time points by removing the uptake buffer and immediately washing the cells 3 times with ice-cold uptake buffer. Cells were lysed with 0.2% SDS and intracellular radioactivity was determined by liquid scintillation counting (Hidex 300SL TDCR liquid scintillation counter, Turku, Finland).
(§3) OCT-specific metformin uptake was obtained by subtracting metformin uptake in the presence of 2 mM unlabeled 1-methyl-4-phenylpyridinium (MPP) from that in its absence. […] OCT-specific metformin uptake in the presence of a PPI was then calculated as percentage of that in the absence of the respective PPI (100% uninhibited). For each PPI concentration, 3 individual experiments each with 3 parallel measurements were performed. Apparent IC50 values for inhibition of metformin uptake by PPIs were calculated for each individual experiment by fitting the values to the Hill equation using GraphPad Prism 4 (GraphPad Software Inc., La Jolla, CA, USA). Values in Table 1 are given as the means ± SE of the 3 individual experiments.

[2] = target: T2, human OCT2 (Homo sapiens, UniProt O15244); assay: Inhibition of OCT2-mediated metformin uptake in stably transfected HEK cells; format: cell-based; conditions: for IC50: 5 µM [14C]metformin uptake, 5 sec, HEK-OCT2, means ± SE of 3 experiments
T2 construct: OCT2: NP_003049.2; expressed in transfected cells; host or cells: HEK293 (ATCC), stably transfected with pcDNA3.1(+)-SLC22A2
T2 sequence (O15244 1-555): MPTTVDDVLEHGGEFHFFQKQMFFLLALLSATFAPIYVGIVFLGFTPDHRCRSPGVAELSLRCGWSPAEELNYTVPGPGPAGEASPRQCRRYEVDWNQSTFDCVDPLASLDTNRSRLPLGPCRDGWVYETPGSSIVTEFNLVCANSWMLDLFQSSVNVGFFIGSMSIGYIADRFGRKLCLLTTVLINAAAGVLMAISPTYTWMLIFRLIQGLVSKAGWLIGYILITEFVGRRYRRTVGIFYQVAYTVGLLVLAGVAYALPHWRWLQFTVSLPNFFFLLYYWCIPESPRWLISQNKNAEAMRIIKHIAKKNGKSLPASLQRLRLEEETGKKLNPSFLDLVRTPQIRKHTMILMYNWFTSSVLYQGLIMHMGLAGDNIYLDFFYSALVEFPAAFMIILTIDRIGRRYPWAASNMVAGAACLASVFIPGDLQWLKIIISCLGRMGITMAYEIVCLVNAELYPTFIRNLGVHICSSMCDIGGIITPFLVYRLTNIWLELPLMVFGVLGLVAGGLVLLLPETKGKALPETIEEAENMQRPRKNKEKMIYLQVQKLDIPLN
Protocol: as §1, §2, §3

[3] = 5 µM metformin, 2 mM unlabeled MPP

| SMILES | IC50 [1] | IC50 [2] | Metformin uptake by HEK-OCT1 in the presence of MPP [1, 3] | Metformin uptake by HEK-OCT2 in the presence of MPP [2, 3] | OCT1-mediated metformin uptake at low PPI concentrations ([1]; low concentrations of PPI, Figure 3) |
| --- | --- | --- | --- | --- | --- |
| Cc1c(OCC(F)(F)F)ccnc1C[S+]([O-])c1nc2ccccc2[nH]1 (stereo not shown) [Lansoprazole] | 35.8 ± 5.8 µM | 9.5 ± 3.8 µM |  |  |  |
| C[n+]1ccc(-c2ccccc2)cc1 [MPP, 1-methyl-4-phenylpyridinium] |  |  | almost completely absent | almost completely absent |  |
| COc1ccc2[nH]c([S+]([O-])Cc3ncc(C)c(OC)c3C)nc2c1 (stereo not shown) [Omeprazole] | 15.7 ± 3.8 µM | 6.7 ± 2.1 µM |  |  |  |
| COc1ccnc(C[S+]([O-])c2nc3ccc(OC(F)F)cc3[nH]2)c1OC (stereo not shown) [Pantoprazole] | 30.8 ± 8.8 µM | 2.8 ± 0.9 µM |  |  |  |
| COCCCOc1ccnc(C[S+]([O-])c2nc3ccccc3[nH]2)c1C (stereo not shown) [Rabeprazole] | 3 ± 1.7 µM | 5.7 ± 0.5 µM |  |  | activated |
| COc1ccc2[nH]c([S+]([O-])Cc3ncc(C)c(OC)c3C)nc2n1 (stereo not shown) [Tenatoprazole] | 23.3 ± 7.1 µM | 20.3 ± 7.2 µM |  |  |  |
